The text below walks through data of publication PMC10937676, “Targeting the NTSR2/TrkB oncogenic pathway in chronic lymphocytic leukemia” (Scientific Reports, 2024).

The subject of assay [1] is Bruton Tyrosine Kinase (BTK). Briefly: Immunoblot, relative phosphorylation level of BTK in CLL-B cells. Format: cell-based, human. The note with it: CLL-B cells from 10 patients, overnight, 10 µM. Here is the method: Figure 5 The peptide inhibits kinase phosphorylation. CLL-B cells from 10 patients were incubated overnight, with or without 10 µM of TAT-Pep. Whole cell lysates were then prepared, and 10 µg of proteins were immunoblotted to assess the following parameters. (A) Relative phosphorylation level of SRC. (B) Relative phosphorylation level of AKT. (C) Relative phosphorylation level of LYN. (D) Relative phosphorylation level of BTK. (E) Relative phosphorylation level of all tyrosine-phosphorylated proteins.
Whole cell lysate proteins were extracted using RIPA buffer (Sigma-Aldrich) and sonication (VibraCell™). Plasma membrane proteins were recovered by using the Plasma Membrane Protein Extraction Kit (Abcam) according to the manufacturer’s instructions. A list of the antibodies used for immunoblotting is available in Supplementary Table 2. Bands were quantitatively assessed by densitometry using Fiji software. To evaluate the level of interaction of NTSR2 and TRKB we normalized the density of the TRKB bands by the density of the NTSR2 bands to obtain the relative amount of TRKB co-precipitated through NTSR2.
(In general: In western blotting, separated proteins are transferred to a membrane and probed.)

The next assay deals with BCL-XL. Briefly: Immunoblot, relative level of anti-apoptotic protein BCL-XL in CLL-B cells. Format: cell-based, human. The note with it: CLL-B cells from 10 patients, overnight, 10 µM. An excerpt:
(§1) Concerning anti-apoptotic protein expression, a decrease in anti-apoptotic proteins BCL-2; BCL-XL and MCL-1 was observed after TAT-Pep treatment of CLL-B cells, possibly as a consequence of the SRC kinase inactivation (Fig. 6A–C). To unveil whether the regulation mechanism behind the observed modifications was transcriptional or post-transcriptional, we evaluated the mRNA levels of all three anti-apoptotic proteins following peptide treatment. […] To further underline that the induction of cell death following TAT-Pep treatment involved apoptosis regulation pathways, we used B cells from six CLL patients and stained them with Annexin V in both TAT-Pep treated and untreated conditions. […]
(§2) Figure 6 The peptide lowers anti-apoptotic proteins levels. […] CLL-B cells from 12 patients were incubated overnight, with or without 10 µM of TAT-Pep, subsequently RNA was extracted from cell lysates and mRNA levels of BCL-2 (D); BCL-XL (E) and MCL-1 (F) were evaluated using RTqPCR; 18S was used as a housekeeping gene. (G) Increased concentrations (0 to 30 µM) of TAT-Pep were incubated with 20,000 CLL-B, and the number of Annexin V-positive cells was measured using the Incucyte live-cell imaging device. Fluorescence was monitored for 48 h. […] The ‘Green Object Count/Phase Object Count’ ratio was determined using the Incucyte analysis software to obtain the percentage of apoptotic cells. […]

A further assay relates to MCL-1 mRNA. Briefly: RTqPCR, mRNA level of MCL-1 in CLL-B cells. Format: cell-based, human. The following applies: CLL-B cells from 12 patients, overnight, 10 µM, 18S housekeeping gene.
From the text: as §1, §2

The next assay has as its system CLL-B cells. Briefly: Apoptosis of CLL-B cells, Annexin V staining (Incucyte). The following applies: 20,000 CLL-B cells, 6 patients, technical triplicates, Annexin V Dye, 48 h, area under the curve. Format: cell-based, human. An excerpt: Concerning anti-apoptotic protein expression, a decrease in anti-apoptotic proteins BCL-2; BCL-XL and MCL-1 was observed after TAT-Pep treatment of CLL-B cells, possibly as a consequence of the SRC kinase inactivation (Fig. 6A–C). To unveil whether the regulation mechanism behind the observed modifications was transcriptional or post-transcriptional, we evaluated the mRNA levels of all three anti-apoptotic proteins following peptide treatment. […] To further underline that the induction of cell death following TAT-Pep treatment involved apoptosis regulation pathways, we used B cells from six CLL patients and stained them with Annexin V in both TAT-Pep treated and untreated conditions. As shown on Fig. 6G, TAT-Pep treatment did induce apoptosis in CLL-B cells. […] However, at 5 µM, there was already a 1.9-fold increase in cell death compared to the control. It progressively rose to a 2.5-fold increase and a 3.6-fold increase for 10 µM and 30 µM, respectively.
Figure 6 The peptide lowers anti-apoptotic proteins levels. CLL-B cells from 10 patients were incubated overnight, with or without 10 µM of TAT-Pep. Whole cell lysates were then prepared, and 10 µg of proteins were immunoblotted to assess the following parameters. (A) Relative level of the anti-apoptotic protein BCL-2 in B-CLL. (B) Relative level of the anti-apoptotic protein BCL-XL and (C) relative level of the anti-apoptotic protein MCL-1. CLL-B samples from ten different patients were utilized for the analysis. CLL-B cells from 12 patients were incubated overnight, with or without 10 µM of TAT-Pep, subsequently RNA was extracted from cell lysates and mRNA levels of BCL-2 (D); BCL-XL (E) and MCL-1 (F) were evaluated using RTqPCR; 18S was used as a housekeeping gene. (G) Increased concentrations (0 to 30 µM) of TAT-Pep were incubated with 20,000 CLL-B, and the number of Annexin V-positive cells was measured using the Incucyte live-cell imaging device. Fluorescence was monitored for 48 h. […] The ‘Green Object Count/Phase Object Count’ ratio was determined using the Incucyte analysis software to obtain the percentage of apoptotic cells. The area under the curve for each condition was then calculated, and they were compared using a t-test.
Cell viability and survival were monitored using the IncucyteS3 system (Sartorius), a live-cell imaging device enabling the tracking of fluorescence over set periods of time[41],[42]. […] In all analyses, the ‘Green Object Count/Phase Object Count’ ratio was determined using the Incucyte analysis software to obtain the percentage of dead cells. The area under the curve for each condition was then calculated, and they were compared using a t-test. To evaluate proliferation, phase confluence was determined and normalized with t = 0 h using the Incucyte analysis software.

Another assay has as its target NTSR2/TRKB interaction (Homo sapiens, UniProt Q16620). As to the kind of experiment: NTSR2-AviTag pull-down, inhibition of the NTSR2/TRKB interaction in transfected HEK293T cells. Also on record: host or cells: HEK293T. It is filed as cell-based. An excerpt: Nuclei were stained with DAPI (blue). […] (C) Representative immunoblot of 3 independent experiments. […] Nuclei were stained with DAPI (blue). Magnification × 40.
The amount of co-immunoprecipitated TRKB protein was detected by immunoblot (Fig. 4C,D). […] This is associated to the low penetration of the peptide in the cells.
Vectors used were constructed by Vector Builder. The vector builder IDs are VB201022-1029qpx (BirA); VB201022-1027yza (TRKB-NTSR2) and VB201022-1012yjb (TRKB-NTSR2-AviTag™). 500 000 HEK293T cells were seeded and transfected the following day with 3 µg of plasmid using jetPEI (Polyplus Transfection). They were then treated with 40 µM biotin and with or without […] of BDNF (ABclonal).
Proteins were extracted using RIPA buffer (Sigma-Aldrich) and sonication (VibraCell™). They were then incubated with 30 μL of streptavidin-functionalized magnetic beads (Invitrogen) for 2 h at 4 °C under rotation. For western blot analysis, the magnetic beads were washed 4 times with cold PBS and the fixed proteins were eluted in 4 × Laemmli buffer supplemented with 10% β-mercaptoethanol and denatured at 95 °C for 5 min.
Whole cell lysate proteins were extracted using RIPA buffer (Sigma-Aldrich) and sonication (VibraCell™). […] Bands were quantitatively assessed by densitometry using Fiji software. […]

Sequence of NTSR2/TRKB interaction (Q16620 32-822): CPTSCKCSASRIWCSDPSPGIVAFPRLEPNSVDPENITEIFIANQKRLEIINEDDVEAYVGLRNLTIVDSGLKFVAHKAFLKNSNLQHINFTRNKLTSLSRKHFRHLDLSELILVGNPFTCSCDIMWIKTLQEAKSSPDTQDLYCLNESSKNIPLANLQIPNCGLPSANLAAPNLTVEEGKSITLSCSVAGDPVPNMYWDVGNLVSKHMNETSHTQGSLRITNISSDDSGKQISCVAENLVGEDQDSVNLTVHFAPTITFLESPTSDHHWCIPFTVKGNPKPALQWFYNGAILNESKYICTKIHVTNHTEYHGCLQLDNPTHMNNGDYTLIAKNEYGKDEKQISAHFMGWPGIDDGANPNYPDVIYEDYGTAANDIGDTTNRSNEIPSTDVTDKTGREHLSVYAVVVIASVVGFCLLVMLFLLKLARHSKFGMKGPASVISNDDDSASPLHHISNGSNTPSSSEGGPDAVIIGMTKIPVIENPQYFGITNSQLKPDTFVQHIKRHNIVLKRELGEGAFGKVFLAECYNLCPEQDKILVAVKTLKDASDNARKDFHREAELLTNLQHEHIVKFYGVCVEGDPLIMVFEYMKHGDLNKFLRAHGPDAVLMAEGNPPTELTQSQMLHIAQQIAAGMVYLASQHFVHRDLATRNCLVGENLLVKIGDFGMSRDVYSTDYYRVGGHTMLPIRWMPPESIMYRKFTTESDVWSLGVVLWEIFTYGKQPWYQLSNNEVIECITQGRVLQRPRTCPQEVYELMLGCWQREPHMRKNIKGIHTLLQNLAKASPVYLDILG

For “GRKKRRQRRRPPQNAVSSSFRKLFLEAVSSLCGEHHPMKRLPPKPQSPTLMDTASGFGDPPETRT [TAT-Pep]”, the “BTK phosphorylation (in words)” value in assay [1] is recorded as “did not affect BTK phosphorylation”. The “level of anti-apoptotic protein BCL-XL (in words)” value with BCL-XL is recorded as “decrease”. For the same sequence, the “mRNA level of MCL-1 (in words)” value in the assay on MCL-1 mRNA is listed as “significantly lowered expression”. In addition, the “Annexin V-positive cells compared to the control (in words)” value in the assay with CLL-B cells (2.5 µM) is given as “no significant cytotoxicity was observed”. For the same sequence, the results for the “increase in cell death (Annexin V-positive cells) compared to the control” value with CLL-B cells (5 µM), in the assay with CLL-B cells (10 µM) and in the assay on CLL-B cells (30 µM) were 1.9 fold, 2.5 fold and 3.6 fold, respectively. The “amount of co-immunoprecipitated TRKB protein (TRKB/NTSR2 ratio, in words)” value at NTSR2/TRKB interaction (transfected HEK293T cells incubated overnight with 10 µM peptide, streptavidin pull-down, immunoblot densitometry, 3 independent experiments) is “significant decrease”. Further, the “effect of BDNF addition on the inhibited NTSR2/TRKB interaction (in words)” value at NTSR2/TRKB interaction (transfected HEK293T cells, 10 µM peptide overnight, BDNF in the culture medium) is “did not restore the interaction”.
